From ChEMBL document CHEMBL1201862, “PubChem BioAssay data set” (2004)
Calls of active or inactive are those of the source.

Tests used:
[1] = blockers of HIV-1 ZM109 envelope-driven cell-cell fusion – HeLa effector, CEM target cells, luciferase, cherry-pick, dose response (AID 652058); type: functional, cell-based;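 further: luciferase signal from HIV-1 Env mediated cell-cell fusion of effector and target cells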
[2] = blockers of HIV-1 envelope-mediated cell-cell fusion – cherry-pick, dose response (AID 652057); type: functional, cell-based
[3] = HIV-1 AD8 envelope cell-cell fusion blockers – cherry-pick, dose response (AID 652062); type: functional, cell-based;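 further: luciferase signal from cell-cell fusion driven by HIV-1 clade B AD8 Env; potency is for inhibitors of fusion seen as a drop in luminescence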
[4] = off-target signal loss in HeLa-CEM21 co-culture – HeLa F-luc CTL cells, cherry-picked, counter-screen for HIV-1 Env fusion inhibitor project, dose response (AID 652040); type: functional, cell-based;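 further: potency for signal decrease marking cytotoxic or nonspecific inhibition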
[5] = target: Paired box protein Pax-8 (Homo sapiens, UniProt Q06710); assay: PAX8 transcriptional activity inhibition in RMG-I – RMG-I cells, luciferase, cherry-pick, dose response (AID 687027); type: functional, cell-based;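 further: luciferase reporter driven by Pax8 target thyroperoxidase promoter measured by SteadyGlo luminescence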
Sequence of Paired box protein Pax-8 (Q06710 whole entry, the tested form may be a part): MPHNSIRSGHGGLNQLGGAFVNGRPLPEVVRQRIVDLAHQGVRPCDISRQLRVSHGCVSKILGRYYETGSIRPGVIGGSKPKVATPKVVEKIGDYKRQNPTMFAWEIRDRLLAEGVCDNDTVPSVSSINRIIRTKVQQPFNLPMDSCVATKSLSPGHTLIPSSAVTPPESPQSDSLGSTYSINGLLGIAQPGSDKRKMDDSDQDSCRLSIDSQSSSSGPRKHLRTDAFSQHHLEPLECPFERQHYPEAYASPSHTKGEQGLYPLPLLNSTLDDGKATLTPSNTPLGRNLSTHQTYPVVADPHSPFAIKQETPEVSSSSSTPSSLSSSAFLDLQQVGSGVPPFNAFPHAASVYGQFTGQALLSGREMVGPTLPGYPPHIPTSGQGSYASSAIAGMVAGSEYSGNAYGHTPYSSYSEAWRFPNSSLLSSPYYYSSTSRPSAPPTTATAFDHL

[6] = target: T1, Polyadenylate-binding protein 1 (Homo sapiens, UniProt P11940); assay: MLLE domain peptide-binding blockers, IC50 – biochemical, fluorescence polarization, FITC-PAM2 peptide, dose response (AID 602259); type: functional; settings: read-out: IC50_Mean
T1 sequence (P11940 whole entry, the tested form may be a part): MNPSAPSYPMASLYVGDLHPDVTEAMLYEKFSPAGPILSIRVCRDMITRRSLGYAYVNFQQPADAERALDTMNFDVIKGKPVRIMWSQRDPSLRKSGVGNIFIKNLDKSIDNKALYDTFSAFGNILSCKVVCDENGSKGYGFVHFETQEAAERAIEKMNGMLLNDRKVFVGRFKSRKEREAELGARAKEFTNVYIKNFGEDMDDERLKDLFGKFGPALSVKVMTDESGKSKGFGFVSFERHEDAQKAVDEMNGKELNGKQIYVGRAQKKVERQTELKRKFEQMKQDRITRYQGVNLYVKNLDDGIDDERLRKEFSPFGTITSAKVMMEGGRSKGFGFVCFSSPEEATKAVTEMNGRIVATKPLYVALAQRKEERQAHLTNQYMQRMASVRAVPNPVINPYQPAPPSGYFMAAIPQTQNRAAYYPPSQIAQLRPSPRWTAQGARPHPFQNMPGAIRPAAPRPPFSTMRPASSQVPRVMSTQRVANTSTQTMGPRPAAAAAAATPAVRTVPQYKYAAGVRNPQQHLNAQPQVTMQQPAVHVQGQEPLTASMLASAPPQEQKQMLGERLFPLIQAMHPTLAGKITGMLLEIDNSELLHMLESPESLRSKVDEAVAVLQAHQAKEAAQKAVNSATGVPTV

[7] = target: T1, Polyadenylate-binding protein 1; assay: MLLE binding blockers, Cy5 peptide tracer – biochemical, fluorescence polarization, Cy5-PAM2 peptide, secondary, miRNA deadenylation inhibitor project, dose response (AID 602260); type: functional; settings: read-out: IC50_Mean
[8] = target: T2, Aminopeptidase N (Plasmodium falciparum FcB1/Columbia, UniProt O96935); assay: malaria alanyl aminopeptidase activity blockers – biochemical, fluorogenic H-Leu-NHMec substrate, 1536-well (AID 1445); parameters: species or system Plasmodium falciparum 3D7, 3D7
T2 sequence (O96935 whole entry): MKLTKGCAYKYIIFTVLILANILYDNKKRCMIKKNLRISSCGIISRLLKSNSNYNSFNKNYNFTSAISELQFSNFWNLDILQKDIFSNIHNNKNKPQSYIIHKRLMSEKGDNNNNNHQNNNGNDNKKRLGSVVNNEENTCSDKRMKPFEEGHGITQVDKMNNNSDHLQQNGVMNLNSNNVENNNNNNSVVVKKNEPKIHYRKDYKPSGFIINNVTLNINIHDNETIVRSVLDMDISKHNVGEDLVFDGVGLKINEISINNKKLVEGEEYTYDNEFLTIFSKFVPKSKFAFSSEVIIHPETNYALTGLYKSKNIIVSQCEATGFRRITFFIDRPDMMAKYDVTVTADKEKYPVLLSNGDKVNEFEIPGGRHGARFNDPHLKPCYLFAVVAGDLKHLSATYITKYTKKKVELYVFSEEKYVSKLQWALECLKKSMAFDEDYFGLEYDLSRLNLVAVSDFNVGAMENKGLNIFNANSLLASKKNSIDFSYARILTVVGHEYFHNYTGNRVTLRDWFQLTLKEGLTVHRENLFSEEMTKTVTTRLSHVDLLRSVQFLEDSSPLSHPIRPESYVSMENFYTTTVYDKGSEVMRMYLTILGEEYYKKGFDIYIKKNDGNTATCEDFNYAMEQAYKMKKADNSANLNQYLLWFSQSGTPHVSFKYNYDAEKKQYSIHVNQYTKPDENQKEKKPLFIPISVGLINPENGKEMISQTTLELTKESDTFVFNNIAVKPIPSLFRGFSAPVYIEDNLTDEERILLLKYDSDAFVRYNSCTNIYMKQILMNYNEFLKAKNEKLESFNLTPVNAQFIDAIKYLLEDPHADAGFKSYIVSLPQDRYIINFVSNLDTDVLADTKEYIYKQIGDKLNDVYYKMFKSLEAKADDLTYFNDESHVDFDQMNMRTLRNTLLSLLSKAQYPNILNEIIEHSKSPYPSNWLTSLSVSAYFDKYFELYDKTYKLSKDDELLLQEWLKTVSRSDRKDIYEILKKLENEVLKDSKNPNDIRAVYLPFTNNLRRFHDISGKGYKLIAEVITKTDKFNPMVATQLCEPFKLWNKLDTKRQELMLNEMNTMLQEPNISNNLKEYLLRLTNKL

[9] = tested on: HEK293; assay: EBV LMP1 TES2 canonical NF-kB signalling blockers – cell-based, HEK293, luciferase, cherry-pick, dose response (AID 588343); type: functional; settings: Homo sapiens
[10] = target: T3, Fatty acid synthase (Homo sapiens, UniProt P49327); assay: inhibition of human FAS-TE enzyme activity – biochemical, kinetic fluorescence intensity, dose response (AID 624326); type: functional;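 further: rate of fluorescence rise from hydrolysis of a fluorogenic O-methyl fluorescein ester substrate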
T3 sequence (P49327 whole entry): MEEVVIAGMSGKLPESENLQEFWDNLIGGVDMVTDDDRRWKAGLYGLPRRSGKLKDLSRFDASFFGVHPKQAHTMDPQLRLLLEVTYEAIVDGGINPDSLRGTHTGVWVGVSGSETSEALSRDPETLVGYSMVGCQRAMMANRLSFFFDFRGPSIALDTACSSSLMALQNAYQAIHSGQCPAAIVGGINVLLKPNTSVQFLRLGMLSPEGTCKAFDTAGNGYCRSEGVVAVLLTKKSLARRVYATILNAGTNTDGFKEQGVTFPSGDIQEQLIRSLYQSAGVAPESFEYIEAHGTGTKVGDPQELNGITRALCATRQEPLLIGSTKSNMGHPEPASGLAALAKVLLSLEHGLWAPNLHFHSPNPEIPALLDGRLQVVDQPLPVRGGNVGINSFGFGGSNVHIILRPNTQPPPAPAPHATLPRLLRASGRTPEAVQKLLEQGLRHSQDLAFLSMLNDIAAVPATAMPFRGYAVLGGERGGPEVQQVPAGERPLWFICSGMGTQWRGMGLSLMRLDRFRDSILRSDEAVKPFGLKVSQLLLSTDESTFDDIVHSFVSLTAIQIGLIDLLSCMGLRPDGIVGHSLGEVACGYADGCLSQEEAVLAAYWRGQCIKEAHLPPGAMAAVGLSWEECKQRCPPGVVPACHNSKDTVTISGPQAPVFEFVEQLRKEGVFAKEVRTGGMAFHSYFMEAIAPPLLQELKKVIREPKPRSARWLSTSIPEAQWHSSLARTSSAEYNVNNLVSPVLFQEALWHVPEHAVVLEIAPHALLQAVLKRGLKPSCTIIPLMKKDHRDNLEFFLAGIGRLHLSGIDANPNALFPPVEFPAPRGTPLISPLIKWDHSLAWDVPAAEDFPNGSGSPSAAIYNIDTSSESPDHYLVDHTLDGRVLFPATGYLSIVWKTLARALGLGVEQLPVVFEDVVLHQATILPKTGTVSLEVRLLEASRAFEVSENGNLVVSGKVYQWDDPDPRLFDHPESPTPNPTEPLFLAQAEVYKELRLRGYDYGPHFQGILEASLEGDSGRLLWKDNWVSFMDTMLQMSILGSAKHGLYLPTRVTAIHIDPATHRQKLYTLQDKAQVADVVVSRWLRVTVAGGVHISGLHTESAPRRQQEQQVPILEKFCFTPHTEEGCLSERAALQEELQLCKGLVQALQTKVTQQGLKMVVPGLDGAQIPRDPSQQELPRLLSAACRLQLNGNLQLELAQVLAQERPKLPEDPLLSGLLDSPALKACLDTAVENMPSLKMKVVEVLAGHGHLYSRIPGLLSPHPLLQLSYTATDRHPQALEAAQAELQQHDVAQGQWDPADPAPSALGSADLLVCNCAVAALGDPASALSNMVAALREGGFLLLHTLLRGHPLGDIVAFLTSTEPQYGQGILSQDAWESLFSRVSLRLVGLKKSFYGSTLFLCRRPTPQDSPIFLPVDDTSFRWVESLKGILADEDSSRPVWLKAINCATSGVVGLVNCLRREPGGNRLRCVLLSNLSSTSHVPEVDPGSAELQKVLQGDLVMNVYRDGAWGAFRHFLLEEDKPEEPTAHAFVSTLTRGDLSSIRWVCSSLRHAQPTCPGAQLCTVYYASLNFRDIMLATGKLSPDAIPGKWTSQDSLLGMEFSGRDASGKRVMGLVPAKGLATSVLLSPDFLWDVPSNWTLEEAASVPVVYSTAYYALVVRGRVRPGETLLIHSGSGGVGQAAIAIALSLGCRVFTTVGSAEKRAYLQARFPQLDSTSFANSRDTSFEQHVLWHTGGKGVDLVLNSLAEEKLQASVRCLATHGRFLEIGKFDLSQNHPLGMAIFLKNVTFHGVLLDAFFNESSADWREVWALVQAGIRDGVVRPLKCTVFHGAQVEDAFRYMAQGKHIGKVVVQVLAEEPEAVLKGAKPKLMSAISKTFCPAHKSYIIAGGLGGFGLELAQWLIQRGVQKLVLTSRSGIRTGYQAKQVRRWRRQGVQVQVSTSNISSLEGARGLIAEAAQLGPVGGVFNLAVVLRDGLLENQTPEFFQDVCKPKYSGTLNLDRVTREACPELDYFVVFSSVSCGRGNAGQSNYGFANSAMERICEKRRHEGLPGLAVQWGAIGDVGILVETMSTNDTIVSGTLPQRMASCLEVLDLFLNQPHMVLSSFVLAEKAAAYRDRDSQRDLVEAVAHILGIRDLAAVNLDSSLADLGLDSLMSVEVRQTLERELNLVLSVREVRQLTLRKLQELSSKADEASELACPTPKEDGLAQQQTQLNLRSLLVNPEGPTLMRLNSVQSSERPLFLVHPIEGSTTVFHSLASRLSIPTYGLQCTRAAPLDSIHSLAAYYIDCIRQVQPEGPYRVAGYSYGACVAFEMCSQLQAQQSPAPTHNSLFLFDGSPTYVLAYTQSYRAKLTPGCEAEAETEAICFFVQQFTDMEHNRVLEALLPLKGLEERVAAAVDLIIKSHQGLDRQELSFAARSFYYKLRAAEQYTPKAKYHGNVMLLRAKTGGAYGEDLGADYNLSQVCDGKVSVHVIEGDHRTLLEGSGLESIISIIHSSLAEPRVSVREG

[11] = target: T3, Fatty acid synthase; assay: inhibition of human FAS-TE enzyme activity – biochemical, endpoint fluorescence intensity, uHTS hits, dose response (AID 624327); type: functional;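 further: fluorescence from hydrolysis of an O-methyl fluorescein acyl ester substrate by the enzyme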
[12] = target: T4, Type-1 angiotensin II receptor (Homo sapiens, UniProt P30556); assay: antagonism of angiotensin II type 1 receptor – cell-based, uHTS hits, selectivity assay for APJ receptor antagonist project, dose response (AID 463214); type: functional;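 further: antagonist potency against angiotensin II stimulated AT1 response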
T4 sequence (P30556 whole entry): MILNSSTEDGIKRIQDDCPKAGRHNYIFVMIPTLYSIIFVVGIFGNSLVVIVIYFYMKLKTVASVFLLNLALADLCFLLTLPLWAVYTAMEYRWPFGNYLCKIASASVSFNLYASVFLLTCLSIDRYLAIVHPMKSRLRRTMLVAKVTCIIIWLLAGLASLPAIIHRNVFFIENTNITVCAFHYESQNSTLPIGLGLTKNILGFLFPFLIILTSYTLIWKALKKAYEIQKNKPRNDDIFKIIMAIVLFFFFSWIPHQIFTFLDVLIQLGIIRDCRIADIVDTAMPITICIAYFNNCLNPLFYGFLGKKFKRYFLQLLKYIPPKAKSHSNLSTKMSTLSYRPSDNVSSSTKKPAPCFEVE

[13] = target: T5, Protein RecA (Mycobacterium tuberculosis, UniProt P9WHJ3); assay: Fluorescence Cell-Free Homogeneous Dose Retest to Identify Inhibitors of RecA-Intein Splicing Activity. [Related pubchem assays (depositor defined):AID2097, AID2223, AID489010, AID492950]; type: functional
T5 sequence (P9WHJ3 whole entry): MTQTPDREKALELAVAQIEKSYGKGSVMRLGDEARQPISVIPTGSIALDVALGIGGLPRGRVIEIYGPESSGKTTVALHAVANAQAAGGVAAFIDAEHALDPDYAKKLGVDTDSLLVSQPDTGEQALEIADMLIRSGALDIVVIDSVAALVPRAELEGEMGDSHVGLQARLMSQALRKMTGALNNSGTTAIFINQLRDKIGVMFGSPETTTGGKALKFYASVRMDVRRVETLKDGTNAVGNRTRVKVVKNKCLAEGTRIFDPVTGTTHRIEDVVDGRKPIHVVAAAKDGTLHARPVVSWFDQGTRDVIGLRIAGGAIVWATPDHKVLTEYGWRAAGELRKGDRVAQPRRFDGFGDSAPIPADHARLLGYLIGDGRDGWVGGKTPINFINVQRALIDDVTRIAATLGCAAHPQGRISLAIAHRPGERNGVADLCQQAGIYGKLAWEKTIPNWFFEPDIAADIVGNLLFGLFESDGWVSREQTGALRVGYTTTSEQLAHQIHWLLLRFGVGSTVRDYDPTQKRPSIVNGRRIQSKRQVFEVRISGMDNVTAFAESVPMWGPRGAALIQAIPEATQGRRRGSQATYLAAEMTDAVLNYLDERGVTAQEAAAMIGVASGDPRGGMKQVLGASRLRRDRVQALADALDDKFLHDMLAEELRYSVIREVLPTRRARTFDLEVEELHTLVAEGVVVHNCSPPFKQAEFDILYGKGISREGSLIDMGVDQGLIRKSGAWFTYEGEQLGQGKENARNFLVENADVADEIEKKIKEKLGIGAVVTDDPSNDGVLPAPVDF

[14] = target: Beta-galactosidase (Escherichia coli, UniProt Q8VNN2); assay: PubChem AID 485352; type: functional
Sequence of Beta-galactosidase (Q8VNN2 whole entry): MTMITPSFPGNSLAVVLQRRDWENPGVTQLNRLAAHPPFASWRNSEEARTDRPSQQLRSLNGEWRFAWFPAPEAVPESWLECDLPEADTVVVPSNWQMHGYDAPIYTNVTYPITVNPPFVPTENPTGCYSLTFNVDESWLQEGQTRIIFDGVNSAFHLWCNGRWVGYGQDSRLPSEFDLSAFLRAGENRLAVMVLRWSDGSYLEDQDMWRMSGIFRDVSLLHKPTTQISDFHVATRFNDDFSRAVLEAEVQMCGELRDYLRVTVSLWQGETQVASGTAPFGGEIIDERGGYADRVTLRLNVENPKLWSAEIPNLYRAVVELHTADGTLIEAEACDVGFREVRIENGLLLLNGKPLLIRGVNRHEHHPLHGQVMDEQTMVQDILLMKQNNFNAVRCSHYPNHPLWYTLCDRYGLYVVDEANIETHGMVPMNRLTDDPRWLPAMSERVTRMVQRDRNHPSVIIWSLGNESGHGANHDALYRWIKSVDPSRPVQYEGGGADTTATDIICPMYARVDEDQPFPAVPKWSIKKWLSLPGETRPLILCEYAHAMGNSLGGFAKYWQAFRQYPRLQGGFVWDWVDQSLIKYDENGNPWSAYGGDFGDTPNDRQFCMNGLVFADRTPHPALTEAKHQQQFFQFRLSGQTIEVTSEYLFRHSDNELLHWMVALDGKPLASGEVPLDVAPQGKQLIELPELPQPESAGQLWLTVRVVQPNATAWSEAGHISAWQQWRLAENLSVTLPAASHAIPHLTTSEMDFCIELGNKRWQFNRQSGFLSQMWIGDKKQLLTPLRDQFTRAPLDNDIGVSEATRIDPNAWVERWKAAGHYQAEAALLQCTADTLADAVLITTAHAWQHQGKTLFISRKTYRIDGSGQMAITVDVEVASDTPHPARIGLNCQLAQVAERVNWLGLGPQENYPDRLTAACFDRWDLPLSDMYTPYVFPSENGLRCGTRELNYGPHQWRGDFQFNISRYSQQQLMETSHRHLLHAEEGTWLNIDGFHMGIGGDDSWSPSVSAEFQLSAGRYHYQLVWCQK

[15] = target: T6, Replicative DNA helicase DnaB (Mycobacterium tuberculosis, UniProt P9WMR3); assay: DnaB intein splicing inhibitors, dose response, biochemical, cell-free fluorescence (AID 449749); type: functional
T6 sequence (P9WMR3 whole entry): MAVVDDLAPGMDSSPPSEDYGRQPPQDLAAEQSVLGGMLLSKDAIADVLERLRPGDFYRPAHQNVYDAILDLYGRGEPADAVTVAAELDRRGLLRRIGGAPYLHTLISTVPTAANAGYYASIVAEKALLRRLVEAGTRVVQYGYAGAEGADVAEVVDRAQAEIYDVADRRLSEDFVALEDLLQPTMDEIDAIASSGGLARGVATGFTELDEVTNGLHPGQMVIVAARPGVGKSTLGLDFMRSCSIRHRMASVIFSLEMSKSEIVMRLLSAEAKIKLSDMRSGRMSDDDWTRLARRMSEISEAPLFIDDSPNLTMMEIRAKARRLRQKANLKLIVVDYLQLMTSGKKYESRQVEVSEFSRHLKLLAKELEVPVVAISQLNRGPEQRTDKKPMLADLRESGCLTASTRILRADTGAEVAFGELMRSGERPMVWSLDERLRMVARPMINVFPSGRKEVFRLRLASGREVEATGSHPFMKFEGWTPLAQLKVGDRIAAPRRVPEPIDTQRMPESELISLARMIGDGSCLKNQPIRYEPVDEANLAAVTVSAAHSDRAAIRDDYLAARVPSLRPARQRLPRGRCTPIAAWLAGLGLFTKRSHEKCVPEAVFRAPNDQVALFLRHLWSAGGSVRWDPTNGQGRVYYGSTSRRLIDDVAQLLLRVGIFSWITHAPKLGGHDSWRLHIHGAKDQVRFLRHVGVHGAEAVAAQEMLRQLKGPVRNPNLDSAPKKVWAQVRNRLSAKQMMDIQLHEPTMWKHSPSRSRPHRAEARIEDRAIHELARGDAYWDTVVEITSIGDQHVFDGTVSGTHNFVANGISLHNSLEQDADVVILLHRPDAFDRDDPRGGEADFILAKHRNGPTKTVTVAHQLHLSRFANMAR

| Structure (SMILES) | AC50 [1] | AC50 [2] | AC50 [3] | AC50 [4] | further results |
| --- | --- | --- | --- | --- | --- |
| CCn1c(COc2ccc(Cl)cc2)nnc1SCc1nc2ccccc2[nH]1 | 12 µM (active) | 6.83 µM (active) | 5.17 µM (active) | 23.5 µM (active) |  |
| COc1ccc(NS(=O)(=O)c2ccc(N3CCCC3)c(NC(S)=Nc3ccc(SC(F)F)cc3)c2)cc1 |  |  |  |  | AC50 [5]: 16.4 µM (active); IC50 [6]: > 66 µM (inactive); IC50 [7]: > 66 µM (inactive) |
| O=C(CN1CCC(NC(=O)c2ccccc2F)CC1)Nc1ccc2c(c1)OCO2 |  |  |  |  | IC50 [8]: 34 µM (active) |
| CC1CCN(c2ccc(-c3ccc(NC(=O)C(F)(F)F)cc3)nn2)CC1 |  |  |  |  | AC50 [9]: 2.7 µM (active) |
| O=C(c1ccc2c(c1)OCO2)N(CC1CCCO1)C1(C(=O)NC2CCCCC2)CCCCC1 (centres undefined) | 4.79 µM (active) | 5.73 µM (active) | 13 µM (active) | 9.67 µM (active) |  |
| CCN(C[C@H]1N[C@@](C)(C(=O)OC)[C@H]2C(=O)N(Cc3ccccc3)C(=O)[C@@H]12)S(=O)(=O)c1ccc(C(C)(C)C)cc1 | 5.16 µM (active) | 5.72 µM (active) | 6.14 µM (active) | 6.31 µM (active) |  |
| CCc1nc2ccc(C(=O)N3CCN(C(=O)c4ccco4)CC3)cn2c1N(C)Cc1ccc(OC)cc1 | 7.5 µM (active) | 2.72 µM (active) | 13.5 µM (active) | 10.4 µM (active) |  |
| Cc1csc(N=Nc2ccc(N(C)C)cc2)[n+]1[O-] |  |  |  |  | AC50 [9]: 2.84 µM (active) |
| O=C(CN1CC(c2ccccc2)CC1=O)N/N=C/c1cc(Br)ccc1O (centres undefined) |  |  |  |  | IC50 [10]: 4.11 µM (active); IC50 [8]: 11.8 µM (active); IC50 [11]: 3.61 µM (active) |
| Cc1cccc(NC(=S)N/N=C2/CCCCc3ccccc32)c1 |  |  |  |  | IC50 [12]: > 40 µM (not active); EC50 [13]: > 380 µM (inactive); EC50 [14]: > 40 µM (inactive); AC50 [15]: 34 µM (active) |
